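How tested: cells in 96-well plates exposed to compound for 48 hours at five concentrations. GI50 marks 50% less growth.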 Calls of active or inactive are those of the source. Rule as the data show it: active = GI50 up to about 1.1 µM and inactive = higher.

Test systems include NCI-H23; OVCAR-8; Hs-578T; NCI-H226; SF-268; PC-3; SR; KM12; U-251; MDA-MB-231; SN12C; A498; IGROV-1; OVCAR-5; SK-MEL-5; MDA-MB-435; NCI/ADR-RES; SNB-75; SNB-19; MOLT-4.
Holding throughout (assay): inhibition of tumour cell growth, NCI panel, 48 h

Take `Cc1cc(=O)nc(Sc2ccc([N+](=O)[O-])cc2[N+](=O)[O-])[nH]1`: the GI50 in the assay on NCI-H23 is 18.3 µM (inactive); in the assay with OVCAR-8 it was 15.9 µM (inactive); in the assay on Hs-578T it was 37.8 µM (inactive); in the assay with NCI-H226, 19.7 µM (inactive); with SF-268, 24.4 µM (inactive); in the assay with PC-3, 22.2 µM (inactive). The GI50 with SR was 6.27 µM (inactive); in the assay with KM12 it was 22.2 µM (inactive); with U-251, 20.7 µM (inactive); with MDA-MB-231, 23.2 µM (inactive); in the assay with SN12C, 10.8 µM (inactive); with A498, > 100 µM (inactive). The GI50 with IGROV-1 was 80.2 µM (inactive); in the assay with OVCAR-5 it was 17.9 µM (inactive); in the assay with SK-MEL-5 it was 1.75 µM (inactive); in the assay on MDA-MB-435, 25.6 µM (inactive); in the assay on NCI/ADR-RES, 30.4 µM (inactive); in the assay on SNB-75 it was 1.53 µM (inactive). The GI50 in the assay with SNB-19 was 26.1 µM (inactive); in the assay on MOLT-4, 7.59 µM (inactive).
For the compound `COc1cc2c(NCCCCCO)ncnc2c(OC)c1OC`, the GI50 in the assay with NCI-H23 was > 100 µM (inactive); in the assay with OVCAR-8, > 100 µM (inactive); with Hs-578T it was > 100 µM (inactive); in the assay on NCI-H226, 43.9 µM (inactive); with SF-268 it was > 100 µM (inactive); in the assay with PC-3, > 100 µM (inactive). In addition, the GI50 in the assay on SR is > 87.9 µM (inactive); with KM12, > 100 µM (inactive); in the assay on U-251, > 100 µM (inactive); with MDA-MB-231, 95.5 µM (inactive); with SN12C, > 100 µM (inactive); in the assay on A498, > 100 µM (inactive). The GI50 is > 100 µM (inactive) with IGROV-1; > 100 µM (inactive) in the assay with OVCAR-5; > 84.7 µM (inactive) in the assay on SK-MEL-5; > 100 µM (inactive) with MDA-MB-435; > 100 µM (inactive) in the assay with NCI/ADR-RES; > 100 µM (inactive) in the assay on SNB-75. Moreover, the GI50 with SNB-19 and with MOLT-4 was > 100 µM (inactive) each time.
As to `CC(C)C[C@H]1[C@@H](OCc2ccccc2)COS(=O)(=O)N1[C@H](C)c1ccccc1`, the GI50 was 6.98 µM (inactive) in the assay with NCI-H23; > 61.5 µM (inactive) in the assay with OVCAR-8; > 100 µM (inactive) in the assay on Hs-578T; > 92 µM (inactive) in the assay on NCI-H226; > 93.1 µM (inactive) in the assay on SF-268; 7.38 µM (inactive) in the assay with PC-3. Moreover, the GI50 in the assay with SR was 3.24 µM (inactive); with KM12, 47.1 µM (inactive); in the assay on U-251, 15.2 µM (inactive); in the assay on MDA-MB-231, 48 µM (inactive); with SN12C it was 75.3 µM (inactive); with A498, > 100 µM (inactive). Also, the GI50 with IGROV-1 was > 100 µM (inactive); with OVCAR-5, > 100 µM (inactive); in the assay on SK-MEL-5, 5.55 µM (inactive); in the assay on MDA-MB-435, 49.7 µM (inactive); in the assay with NCI/ADR-RES, 52.2 µM (inactive); with SNB-75, > 46.7 µM (inactive). The GI50 with SNB-19 is > 46 µM (inactive); with MOLT-4 it was 3.8 µM (inactive).
In the case of `O=C(CCC(=O)c1ccsc1)c1ccsc1`, the GI50 in the assay with NCI-H23, in the assay with OVCAR-8, in the assay on Hs-578T, in the assay with NCI-H226, in the assay on SF-268 and with PC-3 was > 100 µM (inactive) throughout. For the same compound, the GI50 with SR, in the assay on KM12, in the assay with U-251, in the assay with MDA-MB-231, in the assay with SN12C and in the assay on A498 was > 100 µM (inactive) throughout. The GI50 with IGROV-1, in the assay with OVCAR-5, in the assay with SK-MEL-5, in the assay on MDA-MB-435, with NCI/ADR-RES and in the assay on SNB-75 was > 100 µM (inactive) throughout. In addition, the GI50 with SNB-19 and with MOLT-4 was > 100 µM (inactive) throughout.
For the compound `C=C(C)C12CC3CC/C(=N/O)C(C1)C3(N1CCOCC1)C/C2=N/O` (stereo not given), the GI50 with NCI-H23, in the assay with OVCAR-8, in the assay with Hs-578T, in the assay on NCI-H226, in the assay with SF-268 and in the assay with PC-3 was > 100 µM (inactive) throughout. Also, the GI50 in the assay on SR, with KM12, with U-251, with MDA-MB-231, in the assay on SN12C and with A498 was > 100 µM (inactive) in each case. Further, the GI50 in the assay with IGROV-1, in the assay with OVCAR-5, with SK-MEL-5, with MDA-MB-435, in the assay with NCI/ADR-RES and with SNB-75 was > 100 µM (inactive) each time. The GI50 in the assay with SNB-19 and in the assay on MOLT-4 was > 100 µM (inactive) throughout.
For `CSC(=N\c1ccccc1)/N=C(\SCc1ccccc1)N(C)C`, the GI50 in the assay with NCI-H23 was 1.24 µM (inactive); in the assay on OVCAR-8, 1.2 µM (inactive); with Hs-578T, 0.859 µM (active); in the assay with NCI-H226, 1.49 µM (inactive); in the assay on SF-268 it was 0.971 µM (active); in the assay on PC-3 it was 1.29 µM (inactive). Further, the GI50 with SR was 0.16 µM (active); in the assay on KM12, 0.48 µM (active); in the assay on U-251, 1.12 µM (inactive); in the assay with MDA-MB-231, 1.17 µM (inactive); with SN12C it was 1.02 µM (active); with A498, 1.65 µM (inactive). Besides, the GI50 in the assay with IGROV-1 was 0.923 µM (active); in the assay on OVCAR-5, 1.49 µM (inactive); in the assay with SK-MEL-5, 1.47 µM (inactive); with MDA-MB-435, 1.23 µM (inactive); in the assay on NCI/ADR-RES, 1.38 µM (inactive); in the assay on SNB-75, 1.62 µM (inactive). Also, the figures for the GI50 in the assay on SNB-19 and with MOLT-4 were 1.39 µM (inactive) and 0.382 µM (active), respectively.
Regarding `O=P(Nc1ccccc1)(Oc1ccccc1)N1CCN(c2ccccc2)CC1` (stereo not given), the GI50 in the assay on NCI-H23 is 19.6 µM (inactive); in the assay on OVCAR-8, 21.9 µM (inactive); in the assay with Hs-578T, 17.9 µM (inactive); in the assay on NCI-H226, 22.3 µM (inactive); in the assay with SF-268, 23.2 µM (inactive); in the assay with PC-3, 18.1 µM (inactive). Besides, the GI50 in the assay on SR is 34.4 µM (inactive); with KM12 it was 17.4 µM (inactive); with U-251, 16.8 µM (inactive); in the assay on MDA-MB-231 it was 14.9 µM (inactive); in the assay on SN12C it was 17.8 µM (inactive); in the assay with A498, 20.2 µM (inactive). For the same compound, the GI50 in the assay on IGROV-1 is 20.8 µM (inactive); in the assay on OVCAR-5, 17.9 µM (inactive); in the assay with SK-MEL-5, 19.4 µM (inactive); in the assay with MDA-MB-435, 20.8 µM (inactive); in the assay on NCI/ADR-RES, 17.6 µM (inactive); in the assay on SNB-75, 15.2 µM (inactive). Besides, the GI50 in the assay on SNB-19 was 15.8 µM (inactive); with MOLT-4, 17.9 µM (inactive).
Consider `CCOC(=O)CSc1nc2ccccc2c(=O)n1N`, for which the GI50 in the assay on NCI-H23 was > 100 µM (inactive); in the assay with OVCAR-8 it was 32.8 µM (inactive); with Hs-578T, > 100 µM (inactive); with NCI-H226, > 100 µM (inactive); in the assay with SF-268 it was > 100 µM (inactive); in the assay with PC-3, > 100 µM (inactive). The GI50 in the assay with SR is > 100 µM (inactive); with KM12, > 100 µM (inactive); in the assay with U-251, > 100 µM (inactive); in the assay with MDA-MB-231, > 100 µM (inactive); with SN12C, 63.1 µM (inactive); in the assay with A498 it was > 100 µM (inactive). Besides, the GI50 with IGROV-1, with OVCAR-5, with SK-MEL-5, in the assay on MDA-MB-435, in the assay on NCI/ADR-RES and with SNB-75 was > 100 µM (inactive) each time. The GI50 with SNB-19 and in the assay with MOLT-4 was > 100 µM (inactive) each time.
On to `C=CCc1cc(-c2cc(CC=C)c(O)c(CN(CC)CC)c2)cc(CN(CC)CC)c1O`, for which the GI50 with NCI-H23 was 60.1 µM (inactive); in the assay on OVCAR-8, > 96.6 µM (inactive); in the assay with Hs-578T, 28.5 µM (inactive); in the assay with NCI-H226, 48.9 µM (inactive); with SF-268, 76 µM (inactive); with PC-3, 40.2 µM (inactive). Also, the GI50 in the assay on SR is 13.5 µM (inactive); in the assay on KM12, 43.3 µM (inactive); with U-251, 42.4 µM (inactive); in the assay with MDA-MB-231, 26 µM (inactive); with SN12C it was 85.1 µM (inactive); in the assay with A498, > 100 µM (inactive). The GI50 in the assay with IGROV-1 is > 67.6 µM (inactive); in the assay with OVCAR-5, 18.8 µM (inactive); in the assay with SK-MEL-5, 11.1 µM (inactive); in the assay on MDA-MB-435, 37.2 µM (inactive); in the assay on NCI/ADR-RES, 73.1 µM (inactive); with SNB-75, > 100 µM (inactive). For the same compound, the GI50 is > 97.3 µM (inactive) in the assay on SNB-19 and 39.9 µM (inactive) in the assay with MOLT-4.
For `O=C(/C=C/c1cccs1)c1ccc(Cl)s1`, the GI50 was 23.1 µM (inactive) in the assay on NCI-H23; 37.9 µM (inactive) in the assay with OVCAR-8; 46.7 µM (inactive) in the assay with Hs-578T; 28.7 µM (inactive) in the assay with NCI-H226; 38.7 µM (inactive) in the assay with SF-268; 40.6 µM (inactive) in the assay on PC-3. Also, the GI50 with SR is 25.2 µM (inactive); with KM12, 21.8 µM (inactive); in the assay on U-251, 40.8 µM (inactive); in the assay with MDA-MB-231, 40.3 µM (inactive); in the assay with SN12C it was 18.6 µM (inactive); with A498, 55.7 µM (inactive). Moreover, the GI50 in the assay with IGROV-1 is > 10 µM (inactive); with OVCAR-5, 54.3 µM (inactive); with SK-MEL-5, 50.7 µM (inactive); in the assay with MDA-MB-435, 21.9 µM (inactive); with NCI/ADR-RES, > 100 µM (inactive); in the assay on SNB-75, 56 µM (inactive). Further, the GI50 in the assay on SNB-19 is 15.7 µM (inactive); with MOLT-4, 23.8 µM (inactive).
